How the values were obtained:
Type in all cases: in vivo
corn (Zea mays) [1] = assay: Test A greenhouse herbicide test, pre- and postemergence; settings: Postemergence
In short: (§1)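 Seeds sown in loam–sand blend got a preemergence directed soil spray of compound in non-phytotoxic solvent with surfactant. Postemergence treatment was given at 2–10 cm, one- to two-leaf stage. After ~10 d in greenhouse, injury was rated visually vs untreated controls, 0 (no effect) to 100 (complete control).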

[2] = test system: foxtail, giant (giant foxtail, Setaria faberii); assay: as above
In short: as §1

[3] = test system: ryegrass, Italian (Italian ryegrass, Lolium multiflorum); assay: as above
In short: as §1

[4] = test system: wheat (Triticum aestivum); assay: as above; settings: Postemergence
In short: as §1

[5] = test system: blackgrass (Alopecurus myosuroides); assay: Test C greenhouse herbicide test, pre- and postemergence
In short: (§2)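 Preemergence: seeds sown in a loam soil–sand blend and sprayed with test chemicals in a non-phytotoxic solvent mixture containing surfactant. Postemergence: plants grown in peat-based medium and treated at 2 to 18 cm (1- to 4-leaf stage). After 13 to 15 d in a greenhouse, injury was visually rated 0–100 against controls.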

corn (Zea mays) [6] = assay: as above
In short: as §2

[7] = test system: nutsedge, yellow (yellow nutsedge, Cyperus esculentus); assay: as above
In short: as §2

[8] = test system: pigweed (Amaranthus retroflexus); assay: as above
In short: as §2

soybean (Glycine max) = assay: as above
In short: as §2

[9] = test system: velvetleaf (Abutilon theophrasti); assay: as above
In short: as §2

[10] = test system: waterhemp (common waterhemp, Amaranthus rudis); assay: as above
In short: as §2

[11] = 125 g ai/ha, 0 to 100 scale where 0 is no effect and 100 is complete control
[12] = 500 g ai/ha, visual rating after approx. 10 d, 0 to 100 scale (0 no effect, 100 complete control)
[13] = Postemergence, 125 g ai/ha, 0 to 100 scale where 0 is no effect and 100 is complete control
[14] = Postemergence, 500 g ai/ha, visual rating after approx. 10 d, 0 to 100 scale (0 no effect, 100 complete control)
[15] = Preemergence, 125 g ai/ha, 0 to 100 scale where 0 is no effect and 100 is complete control
[16] = Preemergence, 500 g ai/ha, 0 to 100 scale where 0 is no effect and 100 is complete control
[17] = Postemergence, 31 g ai/ha, scale 0 to 100 (0 no effect, 100 complete control)
[18] = Postemergence, 125 g ai/ha, scale 0 to 100, 0 is no effect, 100 is complete control
[19] = Postemergence, 250 g ai/ha, scale 0 to 100, 0 no effect, 100 complete control, 13 to 15 d
[20] = Preemergence, 31 g ai/ha, scale 0 to 100, 0 is no effect, 100 is complete control
[21] = Preemergence, 62 g ai/ha, scale 0 to 100, 0 is no effect, 100 is complete control
[22] = Preemergence, 125 g ai/ha, scale 0 to 100, 0 is no effect, 100 is complete control
[23] = Preemergence, 250 g ai/ha, scale 0 to 100, 0 no effect, 100 complete control
[24] = postemergence, 62 g ai/ha, scale 0 to 100, 0 no effect, 100 complete control

## Cc1ccc2ccccc2c1-c1c(O)c(C(F)(F)F)nn(C)c1=O [Compound 102]
Corn (Zea mays) [1]; [11]
  Plant response rating, Corn: 20
Corn (Zea mays) [1]; [12]
  Plant response rating, Corn: 20
[2]; [13]
  Plant response rating, Foxtail, Giant: 70
[2]; [14]
  Plant response rating, Foxtail, Giant: 90
[2]; [15]
  Foxtail, Giant plant response rating: 70
[2]; [16]
  Plant response rating, Foxtail, Giant: 90
[3]; [13]
  Plant response rating, Ryegrass, Italian: 20
[3]; [14]
  Plant response rating, Ryegrass, Italian: 80
[3]; [15]
  Ryegrass, Italian plant response rating: 60
[3]; [16]
  Plant response rating, Ryegrass, Italian: 60
[4]; [11]
  Plant response rating, Wheat: 20
[4]; [12]
  Plant response rating, Wheat: 20
[5]; [17]
  Plant response rating, Blackgrass: 0
[5]; [18]
  Plant response rating, Blackgrass: 5
[5]; [19]
  Plant response rating, Blackgrass: 10
[5]; [20]
  Plant response rating, Blackgrass: 0
[5]; [21]
  Plant response rating, Blackgrass: 50
[5]; [22]
  Plant response rating, Blackgrass: 45
[5]; [23]
  Blackgrass plant response rating: 70
[5]; [24]
  Blackgrass plant response rating: 5
Corn (Zea mays) [6]; [17]
  Plant response rating, Corn: 0
Corn (Zea mays) [6]; [18]
  Plant response rating, Corn: 10
Corn (Zea mays) [6]; [19]
  Plant response rating, Corn: 10
Corn (Zea mays) [6]; [20]
  Plant response rating, Corn: 5
Corn (Zea mays) [6]; [21]
  Plant response rating, Corn: 10
Corn (Zea mays) [6]; [22]
  Plant response rating, Corn: 20
Corn (Zea mays) [6]; [23]
  Corn plant response rating: 30
Corn (Zea mays) [6]; [24]
  Corn plant response rating: 0
[7]; [17]
  Plant response rating, Nutsedge, Yellow: 20
[7]; [18]
  Plant response rating, Nutsedge, Yellow: 60
[7]; [19]
  Plant response rating, Nutsedge, Yellow: 75
[7]; [20]
  Plant response rating, Nutsedge, Yellow: 15
[7]; [21]
  Plant response rating, Nutsedge, Yellow: 70
[7]; [22]
  Plant response rating, Nutsedge, Yellow: 75
[7]; [23]
  Nutsedge, Yellow plant response rating: 75
[8]; [17]
  Plant response rating, Pigweed: 75
[8]; [18]
  Plant response rating, Pigweed: 95
[8]; [19]
  Plant response rating, Pigweed: 100
[8]; [20]
  Plant response rating, Pigweed: 75
[8]; [21]
  Plant response rating, Pigweed: 85
[8]; [22]
  Plant response rating, Pigweed: 98
[8]; [23]
  Pigweed plant response rating: 100
Soybean (Glycine max); [17]
  Plant response rating, Soybean: 0
Soybean (Glycine max); [18]
  Plant response rating, Soybean: 10
Soybean (Glycine max); [19]
  Plant response rating, Soybean: 10
Soybean (Glycine max); [20]
  Plant response rating, Soybean: 0
Soybean (Glycine max); [21]
  Plant response rating, Soybean: 5
Soybean (Glycine max); [22]
  Plant response rating, Soybean: 5
Soybean (Glycine max); [23]
  Soybean plant response rating: 5
[9]; [17]
  Plant response rating, Velvetleaf: 30
[9]; [18]
  Plant response rating, Velvetleaf: 100
[9]; [19]
  Plant response rating, Velvetleaf: 100
[9]; [20]
  Plant response rating, Velvetleaf: 65
[9]; [21]
  Plant response rating, Velvetleaf: 85
[9]; [22]
  Plant response rating, Velvetleaf: 85
[9]; [23]
  Velvetleaf plant response rating: 100
[10]; [17]
  Plant response rating, Waterhemp: 25
[10]; [18]
  Plant response rating, Waterhemp: 80
[10]; [19]
  Plant response rating, Waterhemp: 85
[10]; [20]
  Plant response rating, Waterhemp: 75
[10]; [21]
  Plant response rating, Waterhemp: 65
[10]; [22]
  Plant response rating, Waterhemp: 75
[10]; [23]
  Waterhemp plant response rating: 85

## CC(=O)Oc1c(C)nn(C)c(=O)c1-c1c(C)sc2ccc(Cl)cc12 [Compound 108]
Corn (Zea mays) [1]; [11]
  Plant response rating, Corn: 0
Corn (Zea mays) [1]; [12]
  Plant response rating, Corn: 0
[2]; [13]
  Plant response rating, Foxtail, Giant: 60
[2]; [14]
  Plant response rating, Foxtail, Giant: 90
[2]; [15]
  Foxtail, Giant plant response rating: 90
[2]; [16]
  Plant response rating, Foxtail, Giant: 100
[3]; [13]
  Plant response rating, Ryegrass, Italian: 100
[3]; [14]
  Plant response rating, Ryegrass, Italian: 100
[3]; [15]
  Ryegrass, Italian plant response rating: 100
[3]; [16]
  Plant response rating, Ryegrass, Italian: 100
[4]; [11]
  Plant response rating, Wheat: 0
[4]; [12]
  Plant response rating, Wheat: 20
[5]; [17]
  Plant response rating, Blackgrass: 15
[5]; [18]
  Plant response rating, Blackgrass: 35
[5]; [19]
  Plant response rating, Blackgrass: 55
[5]; [20]
  Plant response rating, Blackgrass: 10
[5]; [21]
  Plant response rating, Blackgrass: 0
[5]; [22]
  Plant response rating, Blackgrass: 60
[5]; [23]
  Blackgrass plant response rating: 85
[5]; [24]
  Blackgrass plant response rating: 35
Corn (Zea mays) [6]; [17]
  Plant response rating, Corn: 5
Corn (Zea mays) [6]; [18]
  Plant response rating, Corn: 25
Corn (Zea mays) [6]; [19]
  Plant response rating, Corn: 30
Corn (Zea mays) [6]; [20]
  Plant response rating, Corn: 5
Corn (Zea mays) [6]; [21]
  Plant response rating, Corn: 10
Corn (Zea mays) [6]; [22]
  Plant response rating, Corn: 5
Corn (Zea mays) [6]; [23]
  Corn plant response rating: 15
Corn (Zea mays) [6]; [24]
  Corn plant response rating: 40
[7]; [17]
  Plant response rating, Nutsedge, Yellow: 30
[7]; [18]
  Plant response rating, Nutsedge, Yellow: 70
[7]; [19]
  Plant response rating, Nutsedge, Yellow: 75
[7]; [20]
  Plant response rating, Nutsedge, Yellow: 35
[7]; [21]
  Plant response rating, Nutsedge, Yellow: 80
[7]; [22]
  Plant response rating, Nutsedge, Yellow: 70
[7]; [23]
  Nutsedge, Yellow plant response rating: 80
[8]; [17]
  Plant response rating, Pigweed: 90
[8]; [18]
  Plant response rating, Pigweed: 98
[8]; [19]
  Plant response rating, Pigweed: 98
[8]; [20]
  Plant response rating, Pigweed: 100
[8]; [21]
  Plant response rating, Pigweed: 100
[8]; [22]
  Plant response rating, Pigweed: 100
[8]; [23]
  Pigweed plant response rating: 100
Soybean (Glycine max); [17]
  Plant response rating, Soybean: 10
Soybean (Glycine max); [18]
  Plant response rating, Soybean: 15
Soybean (Glycine max); [19]
  Plant response rating, Soybean: 15
Soybean (Glycine max); [20]
  Plant response rating, Soybean: 0
Soybean (Glycine max); [21]
  Plant response rating, Soybean: 0
Soybean (Glycine max); [22]
  Plant response rating, Soybean: 0
Soybean (Glycine max); [23]
  Soybean plant response rating: 0
[9]; [17]
  Plant response rating, Velvetleaf: 70
[9]; [18]
  Plant response rating, Velvetleaf: 100
[9]; [19]
  Plant response rating, Velvetleaf: 100
[9]; [20]
  Plant response rating, Velvetleaf: 50
[9]; [21]
  Plant response rating, Velvetleaf: 75
[9]; [22]
  Plant response rating, Velvetleaf: 85
[9]; [23]
  Velvetleaf plant response rating: 90
[10]; [17]
  Plant response rating, Waterhemp: 85
[10]; [18]
  Plant response rating, Waterhemp: 90
[10]; [19]
  Plant response rating, Waterhemp: 98
[10]; [20]
  Plant response rating, Waterhemp: 75
[10]; [21]
  Plant response rating, Waterhemp: 90
[10]; [22]
  Plant response rating, Waterhemp: 100
[10]; [23]
  Waterhemp plant response rating: 100
